The source of these data is ChEMBL document CHEMBL1201862, “PubChem BioAssay data set” (2004).

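Results reflect a 48-hour exposure of cells in 96-well plates to compound at five concentrations. At the GI50, growth is halved.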 Activity calls are given as the source filed them. No stated cut-off is given here; in the data, active = GI50 up to about 1.1 µM and inactive = higher.

Some test systems named below: A498; A549; BT-549; DU-145; HCC 2998; HCT-116; HCT-15; HOP-92; HT-29; Hs-578T; K562; NCI-H522; OVCAR-3; OVCAR-8; SF-268; SF-295; SK-MEL-5; T47D; UACC-62; MDA-MB-231.
What all share (experiment): NCI-60 cell line screen, 48 h

Consider `COc1cc(C(=O)N(Cc2cccnc2)C(=S)N(Cc2cccnc2)C(=O)c2cc(OC)c(OC)c(OC)c2)cc(OC)c1OC`, for which the GI50 was 23.2 µM (inactive) with A498; > 100 µM (inactive) in the test with A549; 28.5 µM (inactive) in the test with BT-549; 52.2 µM (inactive) with DU-145; 24.3 µM (inactive) in the test on HCC 2998; 31 µM (inactive) with HCT-116. For the same molecule, the GI50 in the test with HCT-15 is 37.7 µM; with HOP-92, 15.1 µM (inactive); in the test with HT-29, 35.4 µM (inactive); in the test on Hs-578T, > 100 µM (inactive); with K562 it was 52 µM (inactive); in the test with NCI-H522 it was 23.9 µM (inactive). In addition, the GI50 was 34.4 µM (inactive) in the test on OVCAR-3; 28.7 µM (inactive) in the test with OVCAR-8; 40.4 µM (inactive) in the test on SF-268; > 100 µM (inactive) with SF-295; 76.9 µM (inactive) in the test with SK-MEL-5; 34.9 µM (inactive) with T47D. Further, the GI50 in the test with UACC-62 was 31.6 µM (inactive).

In the case of `C[N+](C)(CCCn1ccnc1[N+](=O)[O-])CCCn1ccnc1[N+](=O)[O-]`, the GI50 in the test with A498 is > 100 µM (inactive); in the test with A549, > 100 µM (inactive); in the test with BT-549 it was 69.8 µM (inactive); in the test with DU-145 it was > 100 µM (inactive); in the test with HCT-116 it was > 100 µM (inactive); in the test with HCT-15 it was more than 100 µM. Further, the GI50 with HT-29, in the test on Hs-578T, with K562, with MDA-MB-231, in the test on NCI-H522 and in the test on OVCAR-3 was > 100 µM (inactive) in each case. In addition, the GI50 with OVCAR-8, in the test on SF-268, with SF-295, in the test on SK-MEL-5, in the test with T47D and with UACC-62 was > 100 µM (inactive) each time.

Regarding `CC1=CC[C@@]2(CO)[C@@H]([C@@H]1C)[C@H]1CC[C@@H]3[C@@]4(C)CC[C@H](O)C(C)(C)[C@@H]4CC[C@@]3(C)[C@]1(C)C[C@@H]2O`, the GI50 is 24 µM (inactive) with A498; 15.9 µM (inactive) with A549; 20.3 µM (inactive) in the test on BT-549; 23 µM (inactive) in the test with DU-145; 21.5 µM (inactive) in the test on HCT-116; 46.3 µM in the test on HCT-15. The GI50 with HOP-92 is 16.9 µM (inactive); in the test with HT-29 it was 29.8 µM (inactive); in the test on Hs-578T it was 15.8 µM (inactive); with K562, 45.7 µM (inactive); in the test with NCI-H522 it was 8.91 µM (inactive); with OVCAR-3 it was 31.5 µM (inactive). Moreover, the GI50 in the test on OVCAR-8 is 14.3 µM (inactive); with SF-268, 21 µM (inactive); with SF-295, 17 µM (inactive); in the test on SK-MEL-5, 13 µM (inactive); with T47D, 11.9 µM (inactive); in the test with UACC-62, 20.9 µM (inactive).

With `Cc1cc2c(c(C(=O)NCCC(=O)N[C@@H](C)C(=O)OCc3ccccc3)c1)Oc1c(cc(C)cc1C(=O)NCCC(=O)N[C@@H](C)C(=O)OCc1ccccc1)S2`, the GI50 in the test with A498, in the test with A549, with BT-549, in the test on DU-145, in the test with HCC 2998 and in the test with HCT-116 was > 100 µM (inactive) each time. Also, the GI50 was more than 100 µM with HCT-15; > 100 µM (inactive) in the test on HT-29; > 100 µM (inactive) in the test on Hs-578T; > 100 µM (inactive) with K562; > 100 µM (inactive) with MDA-MB-231; > 100 µM (inactive) in the test on OVCAR-3. For the same molecule, the GI50 in the test with OVCAR-8, with SF-268, in the test with SF-295, with SK-MEL-5, in the test on T47D and in the test on UACC-62 was > 100 µM (inactive) throughout.

Turning to `COc1ccc(/C=N/NC(=S)Nc2cc(C)ccc2OC)cc1`, the GI50 was 35.2 µM (inactive) in the test with A498; 45.1 µM (inactive) in the test on A549; 26.6 µM (inactive) in the test on BT-549; 45 µM (inactive) with DU-145; 29.2 µM (inactive) in the test on HCT-116; 10 µM in the test with HCT-15. The GI50 was 25.2 µM (inactive) in the test on HOP-92; 10.1 µM (inactive) in the test on HT-29; 78.5 µM (inactive) in the test on Hs-578T; 0.63 µM (active) with K562; 19.3 µM (inactive) in the test with NCI-H522; 40.2 µM (inactive) in the test with OVCAR-3. The GI50 in the test on OVCAR-8 was 37.6 µM (inactive); with SF-268 it was 48.9 µM (inactive); in the test on SF-295 it was 37.4 µM (inactive); with SK-MEL-5 it was 15.6 µM (inactive); in the test on T47D, 32.9 µM (inactive); in the test with UACC-62 it was 36.1 µM (inactive).

Consider `CN1C(=O)c2c(ccc3c2OCO3)C2C(O)Cc3cc4c(cc3C21)OCO4` (stereo unspecified), for which the GI50 in the test with A498 was 3.18 µM (inactive); in the test on A549, 5.96 µM (inactive); in the test with BT-549, 13.8 µM (inactive); in the test with DU-145 it was 3.65 µM (inactive); in the test with HCC 2998, 4.06 µM (inactive); in the test on HCT-116 it was 4.34 µM (inactive). Also, the GI50 was 3.73 µM in the test on HCT-15; 5.79 µM (inactive) with HOP-92; 3.3 µM (inactive) in the test with HT-29; 5.26 µM (inactive) in the test with Hs-578T; 4.71 µM (inactive) in the test on K562; 3.38 µM (inactive) with MDA-MB-231. Moreover, the GI50 in the test on NCI-H522 is 2.87 µM (inactive); in the test with OVCAR-3 it was 5.2 µM (inactive); with OVCAR-8 it was 5.11 µM (inactive); with SF-268 it was 8.75 µM (inactive); in the test on SF-295, 1.71 µM (inactive); in the test with SK-MEL-5, 5.51 µM (inactive). For the same molecule, the GI50 in the test with UACC-62 was 3.36 µM (inactive).

For the molecule `CCOC(=O)C(=O)C(/C(=N/N(C)C)C(=O)Nc1ccc(C)cc1C)c1nc2ccccc2nc1O` (stereo unspecified), the GI50 in the test with A498 is > 100 µM (inactive); in the test on A549, > 100 µM (inactive); in the test on BT-549, > 100 µM (inactive); in the test with HCC 2998, > 100 µM (inactive); in the test with HCT-116, > 100 µM (inactive); in the test on HCT-15, more than 100 µM. In addition, the GI50 in the test on HOP-92, with HT-29, in the test with Hs-578T, in the test on K562, in the test with MDA-MB-231 and with NCI-H522 was > 100 µM (inactive) in each case. For the same molecule, the GI50 with OVCAR-3, in the test with OVCAR-8, with SF-268, with SF-295, in the test with SK-MEL-5 and in the test on T47D was > 100 µM (inactive) throughout. Besides, the GI50 in the test on UACC-62 is > 100 µM (inactive).

As to `CN(CC#N)C(=O)Cc1ccc([N+](=O)[O-])cc1`, the GI50 in the test with A498, in the test on A549, with BT-549, with DU-145, in the test with HCC 2998 and in the test with HCT-116 was > 10 µM (inactive) in each case. The GI50 was more than 10 µM with HCT-15; > 10 µM (inactive) in the test on HT-29; > 10 µM (inactive) in the test with Hs-578T; > 10 µM (inactive) in the test with K562; > 10 µM (inactive) in the test on MDA-MB-231; > 10 µM (inactive) with OVCAR-3. In addition, the GI50 with OVCAR-8, with SF-268, with SF-295, in the test on SK-MEL-5, in the test on T47D and with UACC-62 was > 10 µM (inactive) each time.

`CN(C)CCNc1ccc(NCC[N+](C)(C)Cc2ccc([N+](=O)[O-])cc2)c2c1C(=O)c1c(O)ccc(O)c1C2=O`: the GI50 in the test with A498 was > 100 µM (inactive); with BT-549, 18.8 µM (inactive); in the test with DU-145, 30.1 µM (inactive); in the test with HCC 2998 it was > 10 µM (inactive); in the test on HCT-116, 15.8 µM (inactive); in the test on HCT-15, 6.82 µM. Besides, the GI50 is 25.8 µM (inactive) with HT-29; 28.9 µM (inactive) in the test on Hs-578T; 6.08 µM (inactive) in the test on K562; 43.2 µM (inactive) in the test with MDA-MB-231; > 100 µM (inactive) in the test with OVCAR-3; > 100 µM (inactive) in the test with OVCAR-8. The GI50 with SF-268 was 19.8 µM (inactive); in the test with SK-MEL-5 it was 10.8 µM (inactive); with T47D, 36.3 µM (inactive); with UACC-62, 31.6 µM (inactive).

Turning to `COc1ccc(C)cc1Nc1nnc(-c2ccccc2N)s1`, the GI50 with A498 is 74.8 µM (inactive); in the test on A549, 47.4 µM (inactive); in the test with BT-549, 62.7 µM (inactive); with DU-145, > 100 µM (inactive); in the test with HCC 2998, 30 µM (inactive); in the test on HCT-116 it was 37.3 µM (inactive). Further, the GI50 in the test with HCT-15 was 45.2 µM; with HOP-92, 21.3 µM (inactive); in the test with HT-29, 41.5 µM (inactive); in the test on Hs-578T it was 36.2 µM (inactive); with K562, 13.7 µM (inactive); with NCI-H522, 20.2 µM (inactive). The GI50 in the test on OVCAR-3 is 37.5 µM (inactive); in the test on OVCAR-8, 35.7 µM (inactive); with SF-268 it was > 100 µM (inactive); in the test with SF-295, 34 µM (inactive); with SK-MEL-5, 13.7 µM (inactive); in the test with T47D it was 49.2 µM (inactive). The GI50 in the test on UACC-62 is 37.3 µM (inactive).

`COC(=O)C1=C(OC)[C@H]2C#C/C=C\C#C[C@@H]3Nc4c(cc(O)c5c4C(=O)c4ccccc4C5=O)[C@]24O[C@@]34[C@H]1C`: the GI50 was < 0.01 µM (active) in the test with A498; < 0.01 µM (active) in the test on A549; < 0.01 µM (active) in the test on BT-549; < 0.01 µM (active) in the test on DU-145; < 0.01 µM (active) in the test with HCC 2998; 0.0555 µM (active) in the test with HCT-116. Besides, the GI50 was less than 0.01 µM in the test with HCT-15; < 0.01 µM (active) with HOP-92; < 0.01 µM (active) with HT-29; 0.173 µM (active) in the test with Hs-578T; < 0.01 µM (active) in the test on K562; < 0.01 µM (active) with MDA-MB-231. For the same molecule, the GI50 was < 0.01 µM (active) in the test on NCI-H522; < 0.0153 µM (active) with OVCAR-3; < 0.01 µM (active) with OVCAR-8; < 0.01 µM (active) in the test with SF-268; < 0.01 µM (active) with SF-295; < 0.01 µM (active) in the test on SK-MEL-5. The GI50 with UACC-62 was < 0.01 µM (active).
